Laboratory results: article PMC10130320, “Extracellular enzymes secreted in the mycelial block of Lentinula edodes during hyphal growth” (AMB Express, 2023)
Where a name gives a salt, the structure may show the parent alone.

What was measured:
Lcc13 = biological target: T1, Lcc13 (Lentinula edodes, UniProt A0A0P0ZBE8); experiment: ABTS oxidation, absorbance at […] nm; assay type: biochemical; conditions: 1.25 mM ABTS; 50 mM sodium citrate pH 3.0; partially purified fraction P2-2
T1 construct: native, partially purified from sawdust medium (fraction P2-2), 61 kDa on SDS-PAGE
T1 sequence (A0A0P0ZBE8 20-520): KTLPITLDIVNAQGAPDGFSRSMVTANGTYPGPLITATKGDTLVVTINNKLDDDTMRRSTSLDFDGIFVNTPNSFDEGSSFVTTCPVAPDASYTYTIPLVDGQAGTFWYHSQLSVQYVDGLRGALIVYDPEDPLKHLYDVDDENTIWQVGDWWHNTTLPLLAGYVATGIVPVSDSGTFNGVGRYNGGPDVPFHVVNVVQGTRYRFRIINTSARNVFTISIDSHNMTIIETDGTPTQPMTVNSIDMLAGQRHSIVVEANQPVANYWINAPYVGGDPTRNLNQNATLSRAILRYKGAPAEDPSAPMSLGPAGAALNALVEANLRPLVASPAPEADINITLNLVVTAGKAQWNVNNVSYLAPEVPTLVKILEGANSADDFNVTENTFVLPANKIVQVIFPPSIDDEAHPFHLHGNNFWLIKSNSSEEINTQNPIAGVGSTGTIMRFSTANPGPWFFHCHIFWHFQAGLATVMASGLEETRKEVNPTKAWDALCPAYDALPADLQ

Lcc5 = biological target: T2, Lcc5 (Lentinula edodes, UniProt R9WU11); experiment: ABTS oxidation, absorbance at […] nm; assay type: biochemical; conditions: 1.25 mM ABTS; 50 mM sodium citrate pH 3.0; partially purified fraction P1-1
T2 construct: native, partially purified from sawdust medium (fraction P1-1), 68 kDa on SDS-PAGE
T2 sequence (R9WU11 22-515): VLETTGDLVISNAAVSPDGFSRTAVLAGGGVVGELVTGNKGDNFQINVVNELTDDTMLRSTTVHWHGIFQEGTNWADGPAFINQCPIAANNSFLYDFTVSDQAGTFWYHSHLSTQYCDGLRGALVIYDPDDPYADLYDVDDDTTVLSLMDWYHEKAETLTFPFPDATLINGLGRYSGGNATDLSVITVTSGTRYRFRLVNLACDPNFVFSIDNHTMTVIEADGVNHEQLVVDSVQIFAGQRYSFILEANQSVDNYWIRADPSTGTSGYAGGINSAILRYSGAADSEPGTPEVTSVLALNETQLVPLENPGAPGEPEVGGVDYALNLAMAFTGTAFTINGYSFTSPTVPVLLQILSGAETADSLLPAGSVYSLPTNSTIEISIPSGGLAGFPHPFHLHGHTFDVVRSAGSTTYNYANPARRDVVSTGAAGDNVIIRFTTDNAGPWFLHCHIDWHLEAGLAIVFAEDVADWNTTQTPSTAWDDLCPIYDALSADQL

Structure (SMILES): CCn1c(=NN=c2sc3cc(S(=O)(=O)O)ccc3n2CC)sc2cc(S(=O)(=O)O)ccc21 [ABTS, 2,2-azino-bis (3-ethylbenzothiazoline-6-sulfonic acid) diammonium salt]
- ABTS oxidation, absorbance at 420 nm (Lcc13): the Lcc purification was performed based on the enzymatic activity for ABTS
- ABTS oxidation, absorbance at 420 nm (Lcc5): the Lcc purification was performed based on the enzymatic activity for ABTS
